According to ChEMBL document CHEMBL5331103, “Discovery of novel 2-hydroxyl-4-benzyloxybenzyl aniline derivatives as potential multifunctional agents for the treatment of Parkinson's disease” (Eur J Med Chem, 2023):
pIC50, pKi: −log10 of the molar value. Active and inactive are the calls of the source. The calls are words filed in the database; no cut-off is given here.

What was measured:
[1] = target: T1, Amine oxidase [flavin-containing] A (Homo sapiens, UniProt P21397); test: Inhibition of MAO-A (unknown origin) using kynuramine as substrate at 10 uM preincubated for 30 mins followed by substrate addition and measured after 30 mins by fluorescence based analysis relative to control; conditions: 0.5 h, time 60 min
T1 sequence (P21397 whole entry): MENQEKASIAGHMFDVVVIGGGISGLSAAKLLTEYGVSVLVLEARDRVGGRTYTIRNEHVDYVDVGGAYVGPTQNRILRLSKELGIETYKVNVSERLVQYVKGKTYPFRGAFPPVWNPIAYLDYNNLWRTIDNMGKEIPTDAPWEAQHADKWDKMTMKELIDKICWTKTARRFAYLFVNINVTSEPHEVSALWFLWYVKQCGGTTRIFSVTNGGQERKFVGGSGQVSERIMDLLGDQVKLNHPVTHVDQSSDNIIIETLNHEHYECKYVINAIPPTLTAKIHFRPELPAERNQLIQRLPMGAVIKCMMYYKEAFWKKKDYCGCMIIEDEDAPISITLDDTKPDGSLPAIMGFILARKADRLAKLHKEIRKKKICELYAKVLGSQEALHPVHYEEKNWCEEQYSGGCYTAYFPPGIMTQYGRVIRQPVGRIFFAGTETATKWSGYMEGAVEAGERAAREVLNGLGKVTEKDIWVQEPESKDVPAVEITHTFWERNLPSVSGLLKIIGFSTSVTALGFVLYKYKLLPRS

[2] = target: T2, Amine oxidase [flavin-containing] B (Homo sapiens, UniProt P27338)
T2 sequence (P27338 whole entry): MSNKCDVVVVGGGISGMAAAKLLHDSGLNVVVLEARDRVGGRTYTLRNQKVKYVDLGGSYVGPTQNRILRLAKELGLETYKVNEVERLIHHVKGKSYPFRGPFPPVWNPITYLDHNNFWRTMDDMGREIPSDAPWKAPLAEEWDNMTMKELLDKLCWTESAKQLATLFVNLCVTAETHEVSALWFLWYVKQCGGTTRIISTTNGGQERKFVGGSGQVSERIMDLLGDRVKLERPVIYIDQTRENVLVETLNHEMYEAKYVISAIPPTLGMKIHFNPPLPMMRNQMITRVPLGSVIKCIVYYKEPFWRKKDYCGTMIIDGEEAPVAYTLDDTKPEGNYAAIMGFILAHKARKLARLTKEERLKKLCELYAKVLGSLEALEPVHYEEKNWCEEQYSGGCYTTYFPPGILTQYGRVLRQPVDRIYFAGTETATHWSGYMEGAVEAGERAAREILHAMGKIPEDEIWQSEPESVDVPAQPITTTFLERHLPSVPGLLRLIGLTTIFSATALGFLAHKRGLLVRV
Description: Inhibition of MAO-B (unknown origin) using kynuramine as substrate preincubated for 30 mins followed by substrate addition and measured after 30 mins by fluorescence based analysis

[3] = target: T2, Amine oxidase [flavin-containing] B; test: Competitive inhibition of MAO-B (unknown origin) using kynuramine as substrate assessed as […] at 0.007 to 0.028 uM by Lineweaver-Burk plot analysis; conditions: dose 0.007-0.028 µM
[4] = target: T2, Amine oxidase [flavin-containing] B; test: Competitive inhibition of MAO-B (unknown origin) using kynuramine as substrate assessed as increase in Km at 0.007 to 0.028 uM by Lineweaver-Burk plot analysis; conditions: dose 0.007-0.028 µM
[5] = target: T2, Amine oxidase [flavin-containing] B; test: Competitive inhibition of MAO-B (unknown origin) using kynuramine as substrate assessed as inhibition constant by Lineweaver-Burk plot analysis
[6] = Metal chelating activity assessed as Zn2+-compound complex formation by measuring increase in absorbance incubated for 2 hrs in the presence of ZnCl2 by UV-Vis spectra analysis
[7] = Metal chelating activity assessed as Fe2+-compound complex formation by measuring increase in absorbance incubated for 2 hrs in the presence of FeSO4 by UV-Vis spectra analysis
[8] = Metal chelating activity assessed as Cu2+-compound complex formation by measuring increase in absorbance incubated for 2 hrs in the presence of CuCl2 by UV-Vis spectra analysis
[9] = Metal chelating activity assessed as Al3+-compound complex formation by measuring increase in absorbance incubated for 2 hrs in the presence of AlCl3 by UV-Vis spectra analysis
[10] = Metal chelating activity assessed as Fe3+-compound complex formation by measuring increase in absorbance incubated for 2 hrs in the presence of FeCl3 by UV-Vis spectra analysis
[11] = Metal chelating activity assessed as Fe2+-compound complex formation by measuring red shift incubated for 2 hrs in the presence of FeSO4 by UV-Vis spectra analysis
[12] = Metal chelating activity assessed as Fe2+-compound complex formation by measuring increase in absorbance incubated for 2 hrs in the presence of FeSO4 at 30 to 900 uM by UV-Vis spectra analysis
[13] = Permeability of the compound in porcine brain incubated for 18 hrs by PAMPA-BBB assay; type: ADME, Sus scrofa; conditions: pig, read-out: permeability
PC-12 [14] = test: Cytotoxicity against rat PC-12 cells assessed as reduction in cell viability upto 50 uM incubated for 2 hrs by MTT assay; type: toxicity, cell-based; conditions: pc-12, 2 h
PC-12 [15] = test: Neuroprotective activity against H2O2-induced cell damage in rat PC-12 cells assessed as increase in cell viability at 10 uM preincubated for 2 hrs followed by H2O2 addition and measured after 24 hrs by MTT assay (reference value: 50.3%); type: functional; conditions: time 26 hrs
PC-12 [16] = test: Neuroprotective activity against H2O2-induced cell damage in rat PC-12 cells assessed as increase in cell viability at 2.5 uM preincubated for 2 hrs followed by H2O2 addition and measured after 24 hrs by MTT assay (reference value: 50.3%); type: functional; conditions: time 26 hrs
PC-12 [17] = test: Neuroprotective activity against H2O2-induced cell damage in rat PC-12 cells assessed as increase in cell viability at 50 uM preincubated for 2 hrs followed by H2O2 addition and measured after 24 hrs by MTT assay (reference value: 50.3%); type: functional; conditions: time 26 hrs
BV-2 [18] = test: Cytotoxicity against mouse BV-2 cells assessed as reduction in cell viability upto 10 uM incubated for 30 mins by MTT assay; type: toxicity, cell-based; conditions: bv-2, 0.5 h
BV-2 [19] = test: Anti-neuroinflammatory activity in mouse BV-2 cells assessed as inhibition of LPS-induced NO production at 10 uM preincubated for 30 mins followed by LPS stimulation and measured after 24 hrs by Griess reagent based assay relative to control; type: functional; conditions: time 24.5 hrs
BV-2 [20] = test: Anti-neuroinflammatory activity in mouse BV-2 cells assessed as inhibition of LPS-induced NO production at 0.5 uM preincubated for 30 mins followed by LPS stimulation and measured after 24 hrs by Griess reagent based assay relative to control; type: functional; conditions: time 24.5 hrs
BV-2 [21] = test: Anti-neuroinflammatory activity in mouse BV-2 cells assessed as inhibition of LPS-induced NO production at 2.5 uM preincubated for 30 mins followed by LPS stimulation and measured after 24 hrs by Griess reagent based assay relative to control; type: functional; conditions: time 24.5 hrs
BV-2 [22] = test: Anti-neuroinflammatory activity in mouse BV-2 cells assessed as inhibition of LPS-induced TNF-alpha production at 10 uM preincubated for 30 mins followed by LPS stimulation and measured after 24 hrs by ELISA analysis relative to control; type: functional; conditions: time 24.5 hrs
BV-2 [23] = test: Anti-neuroinflammatory activity in mouse BV-2 cells assessed as inhibition of LPS-induced TNF-alpha production preincubated for 30 mins followed by LPS stimulation and measured after 24 hrs by ELISA analysis; type: functional, cell-based; conditions: dose 0.5-10 µM, time 24.5 hrs
BV-2 [24] = test: Inhibition of LPS-induced ROS production in mouse BV-2 cells at 2.5 uM preincubated for 30 mins followed by LPS-stimulation and measured after 30 mins by DCFH-DA based fluorescence microplate reader analysis relative to control; type: functional; conditions: BV-2, 1 h, time 60 min
BV-2 [25] = test: Inhibition of LPS-induced ROS production in mouse BV-2 cells at 10 uM preincubated for 30 mins followed by LPS-stimulation and measured after 30 mins by DCFH-DA based fluorescence microplate reader analysis relative to control; type: functional; conditions: BV-2, 1 h, time 60 min
BV-2 [26] = test: Inhibition of LPS-induced NFkappaB activation in mouse BV-2 cells assessed as reduction in IkappaBalpha phosphorylation at 1 to 10 uM preincubated for 30 mins followed by LPS-stimulation and measured after 16 hrs by Western blot analysis; type: cell-based; conditions: dose 1-10 µM, time 16.5 hrs
BV-2 [27] = test: Inhibition of LPS-induced NFkappaB activation in mouse BV-2 cells assessed as inhibition of p65 translocation to nucleus at 1 to 10 uM preincubated for 30 mins followed by LPS-stimulation and measured after 16 hrs by Western blot analysis; type: cell-based; conditions: dose 1-10 µM, time 16.5 hrs
Mus musculus [28] = test: Anti-parkinson's disease activity in MPTP-induced C57BL/6C mouse model assessed as increase in traction test score at 53.5 mg/kg, IG preadministered with MPTP for 5 days followed by compound administration for 3 weeks and measured 1 hrs post last dose by traction test; type: functional, organism-based
Mus musculus [29] = test: Anti-parkinson's disease activity in MPTP-induced C57BL/6C mouse model assessed as reduction in beam walking test time at 53.5 mg/kg, IG preadministered with MPTP for 5 days followed by compound administration for 3 weeks and measured 1 hrs post last dose by beam-walking test; type: functional, organism-based
Mus musculus [30] = test: Anti-parkinson's disease activity in MPTP-induced C57BL/6C mouse model assessed as reduction in time required to turn the head to 180 degree at 53.5 mg/kg, IG preadministered with MPTP for 5 days followed by compound administration for 3 weeks and measured 1 hrs post last dose by pole test; type: functional, organism-based
Mus musculus [31] = test: Anti-parkinson's disease activity in MPTP-induced C57BL/6C mouse model assessed as reduction in total time required to reach the bottom of pole at 53.5 mg/kg, IG preadministered with MPTP for 5 days followed by compound administration for 3 weeks and measured 1 hrs post last dose by pole test; type: functional, organism-based
Mus musculus [32] = test: In vivo inhibition of MAO-B in MPTP-induced C57BL/6C parkinson's mouse model assessed as increase in DA level in corpus striatum at 53.5 mg/kg, IG preadministered with MPTP for 5 days followed by compound administration for 3 weeks and measured 1 hrs post last dose by HPLC-ECD method; type: functional, organism-based
Mus musculus [33] = test: Anti-parkinson's disease activity in MPTP-induced C57BL/6C mouse model assessed as decrease in MDA level in corpus striatum at 53.5 mg/kg, IG preadministered with MPTP for 5 days followed by compound administration for 3 weeks and measured 1 hrs post last dose by HPLC-ECD method; type: functional, organism-based
Mus musculus [34] = species: Mus musculus; conditions: C57BL/6C, dose 50.0 mg/kg, route ig, time 3.0 weeks

O=[N+]([O-])c1ccc(COc2ccc(CNc3ccccc3)c(O)c2)cc1
inhibition at 10 µM [1]: 30.6%
pIC50 [2]: 7.07

Oc1cc(OCc2cccc(F)c2)ccc1CNc1ccccc1
inhibition at 10 µM [1]: 11.8%
pIC50 [2]: 7.02

Oc1cc(OCc2ccc(F)c(Cl)c2)ccc1CNc1ccccc1
inhibition at 10 µM [1]: 49.2%
pIC50 [2]: 7.48

Oc1cc(OCc2ccc(F)cc2)ccc1CNc1ccccc1
inhibition at 10 µM [1]: 43.7%
pIC50 [2]: 7.85
inhibition (INH) [3]: Active
inhibition (INH) [4]: Active
pKi [5]: 7.74
Activity [6]: Active
Activity [7]: Active
Activity [8]: Active
Activity [9]: Active
Activity [10]: Active
Activity [11]: Active
Activity [12]: Active
Papp at 18 h [13]: 8.62 ×10⁻⁶ cm/s
Activity (PC-12 [14]): Non-Toxic
Activity (PC-12 [15]): 69.6%
Activity (PC-12 [16]): 59.8%
Activity (PC-12 [17]): 77.2%
Activity (BV-2 [18]): Non-Toxic
inhibition at 10 µM (BV-2 [19]): 76.1%
inhibition at 0.5 µM (BV-2 [20]): 13.5%
inhibition at 2.5 µM (BV-2 [21]): 28%
inhibition at 10 µM (BV-2 [22]): 63.9%
Activity (BV-2 [23]): Dose-Dependent Effect
inhibition at 2.5 µM (BV-2 [24]): 21.2%
inhibition at 10 µM (BV-2 [25]): 99%
inhibition (BV-2 [26]): Active
inhibition (BV-2 [27]): Active
Activity (Mus musculus [28]): Active
Activity (Mus musculus [29]): Active
Activity (Mus musculus [30]): Active
Activity (Mus musculus [31]): Active
inhibition (Mus musculus [32]): Active
Activity (Mus musculus [33]): Active

Oc1cc(OCc2cccc(C(F)(F)F)c2)ccc1CNc1ccccc1
inhibition at 10 µM [1]: 9.25%
pIC50 [2]: 6.53

Oc1cccc(NCc2ccc(OCc3ccc(F)cc3)cc2O)c1
inhibition at 10 µM [1]: 35.5%
pIC50 [2]: 7.17

Oc1cc(OCc2ccc(F)c(F)c2)ccc1CNc1ccccc1
inhibition at 10 µM [1]: 48%
pIC50 [2]: 7.68

Oc1cc(OCc2cccc(Cl)c2)ccc1CNc1ccccc1
inhibition at 10 µM [1]: 20.5%
pIC50 [2]: 6.60

C[C@H](NCc1ccc(OCc2cccc(F)c2)cc1)C(N)=O [SAFINAMIDE]
inhibition at 10 µM [1]: 25.7%
inhibition (Mus musculus [34]): Active

Oc1cc(OCc2ccc(Cl)cc2)ccc1CNc1ccccc1
inhibition at 10 µM [1]: 51.2%
pIC50 [2]: 7.24
